Reference: US20110214196A1, “DEVELOPMENT OF HERBICIDE-RESISTANT GRASS SPECIES” (University of Georgia Research Foundation, priority 2008, published 2011)

Experiments:
[1] = test system: sethoxydim-resistant Line A; experiment: Whole plant greenhouse dose-response, Segment herbicide (Example 8); type: in vivo, seashore paspalum (Paspalum vaginatum)
Method: (§1) Sethoxydim-resistant plants regenerated from a sethoxydim-resistant cell line, Line A, were tested for resistance at the whole plant level in a dose-response experiment conducted in a greenhouse. In this experiment, Line A was compared to two herbicide-susceptible controls; the original parent line, Mauna Kea (PT); and a Mauna Kea line regenerated from tissue culture (TTC). Plants were transplanted to Cone-tainers™ measuring 4×14 cm and tapering to 1 cm (Stuewe and Sons Inc., Corvallis, Oreg.) containing a 1:1 mix of Fafard® 3B mix and sand and placed on benches under sodium lights in a greenhouse with a 16 hour photoperiod maintained at 27/32° C. day/night for two weeks prior to treatment applications. Each of the three genotypes, Line A, PT and TC were treated with 0, 50, 100, 200, 400, 800, 1600, and 3200 g ai ha^−1 rates of sethoxydim using Segment™ herbicide (BASF Corp., Florham Park, N.J.). All herbicide rates were applied at a spray volume of 1871 ha^−1 in an experimental spray chamber, and after drying, returned to the greenhouse bench and maintained under the conditions described above. Visual estimates of crop injury were recorded at 7, 14, 21, and 28 days after treatment (DAT) using a scale of 0 to 100, where 0 equals no injury and 100 equals complete death. At 42 days after treatment, the above ground portion of all plants was harvested, dried for 48 hours at a temperature of 50° C., and weighed to determine plant dry weight. Treatments were arranged in a randomized complete block design. Only two replications of TCC were possible due to limited plant materials; otherwise four replications were used for the other two genotypes (PT and Line A). Data were first analyzed using a two-way analysis of variance and subsequently analyzed within herbicide rate. Differences among genotype means at each herbicide rate were determined using Fisher's Least Significant Difference (LSD).

[2] = test system: Mauna Kea line regenerated from tissue culture (TC); experiment: as above; type: in vivo, seashore paspalum (Paspalum vaginatum)
Method: as §1

For `CCC/C(=N\OCC)C1=C(O)CC(CC(C)SCC)CC1=O` (centres unmarked) [sethoxydim, 2-[1-(ethoxyimino)-butyl]-5-[2-(ethylthio)propyl]-3-hydroxy-2-cylohexen-1-one], which LD50 [1] is on record?
The LD50 was > 3200 g ai ha^1.

What about the “Plant Injury” value ([1]; 50 g a.i. ha^−1, 7 DAT) of the same compound?
The value was 2.9a %.

What about the “Plant Injury” value ([1]; 50 g a.i. ha^−1, 14 DAT) of the same compound?
Its value is 0.0b %.

And the “Plant Injury” value ([1]; 50 g a.i. ha^−1, 21 DAT)?
The value was 1.2a %.

What about the “Plant Injury” value ([1]; 50 g a.i. ha^−1, 28 DAT) of the same compound?
Its value is 0.0a %.

And the “Dry Weight” value ([1]; 50 g a.i. ha^−1, 42 DAT)?
Its value is 1.7a grams.

What about the “Plant Injury” value ([1]; 100 g a.i. ha^−1, 7 DAT) of the same compound?
The value was 0.8a %.

And the “Plant Injury” value ([1]; 100 g a.i. ha^−1, 14 DAT)?
Its value is 1.2a %.

And the “Plant Injury” value ([1]; 100 g a.i. ha^−1, 21 DAT)?
The value was 3.8a %.

What about the “Plant Injury” value ([1]; 100 g a.i. ha^−1, 28 DAT) of the same compound?
The value was 2.5a %.

What about the “Dry Weight” value ([1]; 100 g a.i. ha^−1, 42 DAT) of the same compound?
The value was 2.0a grams.

What about the “Plant Injury” value ([1]; 200 g a.i. ha^−1, 7 DAT) of the same compound?
Its value is 1.7a %.

And the “Plant Injury” value ([1]; 200 g a.i. ha^−1, 14 DAT)?
The value was 0.0a %.

And the “Plant Injury” value ([1]; 200 g a.i. ha^−1, 21 DAT)?
Its value is 0.0a %.

What about the “Plant Injury” value ([1]; 200 g a.i. ha^−1, 28 DAT) of the same compound?
The value was 0.0a %.

What about the “Dry Weight” value ([1]; 200 g a.i. ha^−1, 42 DAT) of the same compound?
Its value is 1.9a grams.

And the “Plant Injury” value ([1]; 400 g a.i. ha^−1, 7 DAT)?
Its value is 3.8a %.

And the “Plant Injury” value ([1]; 400 g a.i. ha^−1, 14 DAT)?
Its value is 0.0a %.

And the “Plant Injury” value ([1]; 400 g a.i. ha^−1, 21 DAT)?
The value was 2.5a %.

And the “Plant Injury” value ([1]; 400 g a.i. ha^−1, 28 DAT)?
Its value is 0.0a %.

What about the “Dry Weight” value ([1]; 400 g a.i. ha^−1, 42 DAT) of the same compound?
Its value is 2.0a grams.

What about the “Plant Injury” value ([1]; 800 g a.i. ha^−1, 7 DAT) of the same compound?
The value was 1.2a %.

And the “Plant Injury” value ([1]; 800 g a.i. ha^−1, 14 DAT)?
Its value is 1.2a %.

What about the “Plant Injury” value ([1]; 800 g a.i. ha^−1, 21 DAT) of the same compound?
The value was 3.8a %.

And the “Plant Injury” value ([1]; 800 g a.i. ha^−1, 28 DAT)?
The value was 1.2a %.

What about the “Dry Weight” value ([1]; 800 g a.i. ha^−1, 42 DAT) of the same compound?
The value was 2.0a grams.

And the “Plant Injury” value ([1]; 1600 g a.i. ha^−1, 7 DAT)?
The value was 4.3a %.

What about the “Plant Injury” value ([1]; 1600 g a.i. ha^−1, 14 DAT) of the same compound?
The value was 0.0a %.

What about the “Plant Injury” value ([1]; 1600 g a.i. ha^−1, 21 DAT) of the same compound?
The value was 3.8a %.

What about the “Plant Injury” value ([1]; 1600 g a.i. ha^−1, 28 DAT) of the same compound?
Its value is 1.2a %.

What about the “Dry Weight” value ([1]; 1600 g a.i. ha^−1, 42 DAT) of the same compound?
The value was 1.5a grams.

What about the “Plant Injury” value ([1]; 3200 g a.i. ha^−1, 7 DAT) of the same compound?
The value was 8.3a %.

And the “Plant Injury” value ([1]; 3200 g a.i. ha^−1, 14 DAT)?
The value was 7.5a %.

And the “Plant Injury” value ([1]; 3200 g a.i. ha^−1, 21 DAT)?
The value was 5.5a %.

And the “Plant Injury” value ([1]; 3200 g a.i. ha^−1, 28 DAT)?
Its value is 4.2b %.

And the “Dry Weight” value ([1]; 3200 g a.i. ha^−1, 42 DAT)?
The value was 1.6a grams.

What about the “maximum injury score observed” value ([1]; at 3200 g ai ha^−1) of the same compound?
The value was 7.5%.

And the LD50 [2]?
Its LD50 is 276 g ai ha^1.

And the “Plant Injury” value ([2]; 50 g a.i. ha^−1, 7 DAT)?
The value was 4.5a %.

What about the “Plant Injury” value ([2]; 50 g a.i. ha^−1, 14 DAT) of the same compound?
Its value is 12.5ab %.

And the “Plant Injury” value ([2]; 50 g a.i. ha^−1, 21 DAT)?
Its value is 2.5a %.

And the “Plant Injury” value ([2]; 50 g a.i. ha^−1, 28 DAT)?
Its value is 0.0a %.

What about the “Dry Weight” value ([2]; 50 g a.i. ha^−1, 42 DAT) of the same compound?
Its value is 2.2a grams.

What about the “Plant Injury” value ([2]; 100 g a.i. ha^−1, 7 DAT) of the same compound?
The value was 18.3b %.

What about the “Plant Injury” value ([2]; 100 g a.i. ha^−1, 14 DAT) of the same compound?
The value was 25.0b %.

What about the “Plant Injury” value ([2]; 100 g a.i. ha^−1, 21 DAT) of the same compound?
The value was 20.0a %.

What about the “Plant Injury” value ([2]; 100 g a.i. ha^−1, 28 DAT) of the same compound?
Its value is 7.5a %.

And the “Dry Weight” value ([2]; 100 g a.i. ha^−1, 42 DAT)?
The value was 1.6ab grams.

And the “Plant Injury” value ([2]; 200 g a.i. ha^−1, 7 DAT)?
The value was 16.7b %.

And the “Plant Injury” value ([2]; 200 g a.i. ha^−1, 14 DAT)?
Its value is 30.0b %.

And the “Plant Injury” value ([2]; 200 g a.i. ha^−1, 21 DAT)?
The value was 40.0b %.

And the “Plant Injury” value ([2]; 200 g a.i. ha^−1, 28 DAT)?
The value was 32.5b %.

And the “Dry Weight” value ([2]; 200 g a.i. ha^−1, 42 DAT)?
The value was 0.4b grams.

What about the “Plant Injury” value ([2]; 400 g a.i. ha^−1, 7 DAT) of the same compound?
The value was 30.8b %.

What about the “Plant Injury” value ([2]; 400 g a.i. ha^−1, 14 DAT) of the same compound?
The value was 82.5b %.

What about the “Plant Injury” value ([2]; 400 g a.i. ha^−1, 21 DAT) of the same compound?
The value was 80.0b %.
